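Test compounds were applied to cells in 96-well plates for 48 hours at 5 doses. Abbreviation: GI50, concentration required for 50% inhibition of growth.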 Active and inactive are the calls of the source. No stated cut-off is given here; in the data, active = GI50 up to about 1.1 µM and inactive = higher.

Among the test systems are A498; CAKI-1; COLO 205; EKVX; HCT-15; HOP-92; KM12; MDA-MB-435; NCI-H226; OVCAR-4; OVCAR-8; SF-268; SK-MEL-28; SK-MEL-5; SN12C; SNB-19; T47D; TK-10; U-251; UO-31.
Common to all, as to assay: NCI tumour cell line growth inhibition, 48 h

For `CC1(C)CC(=O)C(CC(C(=O)C(=O)Nc2cc(C(F)(F)F)ccc2Cl)C(=O)c2ccco2)C(=O)C1` (stereo not given), the GI50 was 46.9 µM (inactive) with A498; > 100 µM (inactive) with CAKI-1; > 100 µM (inactive) in the assay with COLO 205; > 100 µM (inactive) in the assay on EKVX; more than 100 µM in the assay with HCT-15; > 100 µM (inactive) in the assay on HOP-92. The GI50 in the assay on KM12, with MDA-MB-435, in the assay with NCI-H226, in the assay on OVCAR-4, in the assay with OVCAR-8 and in the assay with SF-268 was > 100 µM (inactive) throughout. The GI50 in the assay on SK-MEL-28, with SK-MEL-5, with SN12C, with SNB-19, with T47D and with TK-10 was > 100 µM (inactive) throughout. The GI50 in the assay on U-251 and in the assay on UO-31 was > 100 µM (inactive) in each case.

Consider `Oc1ccc2ccccc2c1-c1c(Nc2ccccc2)ccc2ccccc12`, for which the GI50 in the assay with A498 was 18.1 µM (inactive); in the assay on CAKI-1, 14.9 µM (inactive); in the assay with COLO 205 it was 19.9 µM (inactive); with EKVX it was 16.9 µM (inactive); in the assay with HCT-15, more than 38 µM; with HOP-92 it was 1.32 µM (inactive). Moreover, the GI50 in the assay with KM12 was 17.9 µM (inactive); in the assay with MDA-MB-435, 6.34 µM (inactive); with NCI-H226 it was 21 µM (inactive); in the assay on OVCAR-4, 12.3 µM (inactive); with OVCAR-8, 16.6 µM (inactive); in the assay with SF-268, 16.7 µM (inactive). Besides, the GI50 in the assay on SK-MEL-28 was 13.9 µM (inactive); with SK-MEL-5, 13.6 µM (inactive); with SN12C, 27 µM (inactive); in the assay on SNB-19, 18.5 µM (inactive); in the assay on T47D, 18.8 µM (inactive); in the assay with TK-10, 16.9 µM (inactive). The GI50 in the assay with U-251 is 21.8 µM (inactive); with UO-31 it was 15.7 µM (inactive).

Consider `CCN(CC)C(=S)SNCc1ccc(S(N)(=O)=O)cc1`, for which the GI50 is > 57.1 µM (inactive) in the assay on A498; 14.7 µM (inactive) with CAKI-1; 14.6 µM (inactive) in the assay on COLO 205; 20.9 µM (inactive) in the assay on EKVX; 19.1 µM with HCT-15; 22.5 µM (inactive) in the assay with HOP-92. Besides, the GI50 is 14.9 µM (inactive) with KM12; 19.5 µM (inactive) in the assay with MDA-MB-435; > 38.9 µM (inactive) in the assay on NCI-H226; 18.7 µM (inactive) in the assay on OVCAR-4; 14.4 µM (inactive) in the assay with OVCAR-8; 12.9 µM (inactive) in the assay with SF-268. The GI50 was 18.2 µM (inactive) with SK-MEL-28; 13.5 µM (inactive) in the assay on SK-MEL-5; 15.5 µM (inactive) with SN12C; 16 µM (inactive) with SNB-19; 16.4 µM (inactive) in the assay on T47D; 25 µM (inactive) with TK-10. For the same compound, the figures for the GI50 in the assay with U-251 and in the assay on UO-31 were 11.2 µM (inactive) and 13.1 µM (inactive), respectively.

Consider `COc1ccc(/C=N/n2c(Cc3ccccc3)n[nH]c2=O)c(OC)c1`, for which the GI50 was 44.4 µM (inactive) in the assay on A498; > 51.4 µM (inactive) in the assay with CAKI-1; > 31.6 µM (inactive) with COLO 205; > 57.9 µM (inactive) in the assay with EKVX; more than 100 µM with HCT-15; 24.2 µM (inactive) with HOP-92. In addition, the GI50 with KM12 was > 100 µM (inactive); in the assay on MDA-MB-435 it was > 100 µM (inactive); in the assay on NCI-H226, 33.8 µM (inactive); with OVCAR-4, > 58.6 µM (inactive); with OVCAR-8, 24.7 µM (inactive); in the assay on SF-268, 15.5 µM (inactive). For the same compound, the GI50 in the assay with SK-MEL-28 is > 100 µM (inactive); with SK-MEL-5, > 71.4 µM (inactive); with SN12C, > 100 µM (inactive); in the assay with SNB-19, 28.2 µM (inactive); in the assay on T47D it was > 100 µM (inactive); in the assay on TK-10, 27.3 µM (inactive). Besides, the GI50 in the assay with U-251 is 22 µM (inactive); in the assay with UO-31, > 42.8 µM (inactive).

Turning to `NC(=S)NN=C1Cc2ccccc2C1`, the GI50 is > 100 µM (inactive) in the assay with A498; > 100 µM (inactive) with CAKI-1; > 100 µM (inactive) in the assay with COLO 205; 42.3 µM (inactive) in the assay on EKVX; more than 100 µM with HCT-15; > 100 µM (inactive) with HOP-92. In addition, the GI50 in the assay on KM12, with MDA-MB-435, with NCI-H226, in the assay with OVCAR-4, in the assay with OVCAR-8 and with SF-268 was > 100 µM (inactive) each time. The GI50 in the assay on SK-MEL-28, with SK-MEL-5, in the assay with SN12C, with SNB-19, with T47D and in the assay with TK-10 was > 100 µM (inactive) throughout. The GI50 in the assay on U-251 and in the assay on UO-31 was > 100 µM (inactive) throughout.

As for `CC(C)(C)OC(=O)NCCCCC1NC(=O)[C@@H]2Cc3c([nH]c4ccccc34)C(c3ccccc3)N2C1=O` (stereo not given in full), the GI50 was 72.6 µM (inactive) with A498; 50.5 µM (inactive) in the assay with CAKI-1; 21.1 µM (inactive) in the assay on COLO 205; 44.9 µM (inactive) in the assay on EKVX; 31.1 µM in the assay on HCT-15; 22.8 µM (inactive) with HOP-92. In addition, the GI50 in the assay with KM12 is 18.9 µM (inactive); in the assay on MDA-MB-435 it was 34.2 µM (inactive); in the assay on NCI-H226 it was 63.7 µM (inactive); with OVCAR-4, 48.5 µM (inactive); in the assay on OVCAR-8, 36.2 µM (inactive); in the assay on SF-268 it was 14 µM (inactive). Also, the GI50 with SK-MEL-28 is 64.6 µM (inactive); with SK-MEL-5, 27.6 µM (inactive); with SN12C, 28.8 µM (inactive); in the assay on SNB-19 it was 50.1 µM (inactive); in the assay with T47D, 18 µM (inactive); with TK-10, 35.2 µM (inactive). Moreover, the values for the GI50 in the assay with U-251 and with UO-31 were 35.1 µM (inactive) and 10.7 µM (inactive), respectively.

Regarding `CCOC(=O)/C(=C\NCc1ccc2c(c1)OCO2)c1nc2ccccc2[nH]1`, the GI50 is > 100 µM (inactive) with A498; > 100 µM (inactive) in the assay on CAKI-1; 32.7 µM (inactive) in the assay on COLO 205; > 100 µM (inactive) with EKVX; 44.9 µM with HCT-15; 71.9 µM (inactive) with HOP-92. The GI50 in the assay on KM12 was 42.7 µM (inactive); with MDA-MB-435, 48.6 µM (inactive); in the assay on NCI-H226, > 100 µM (inactive); in the assay with OVCAR-4, 57.3 µM (inactive); in the assay on OVCAR-8, 43 µM (inactive); in the assay with SF-268, 61.4 µM (inactive). Moreover, the GI50 is 60.7 µM (inactive) in the assay on SK-MEL-28; 25.8 µM (inactive) in the assay on SK-MEL-5; > 100 µM (inactive) with SN12C; 46.9 µM (inactive) in the assay with SNB-19; 35.9 µM (inactive) in the assay on T47D; 22.8 µM (inactive) with TK-10. In addition, the GI50 in the assay with U-251 is 82 µM (inactive); in the assay on UO-31, 79.4 µM (inactive).

(Values after ChEMBL document CHEMBL1201862, “PubChem BioAssay data set” (2004).)
